Assay results from PMC5562236, “Properties of Two Novel Esterases Identified from Culture Supernatant of Penicillium purpurogenum Grown on Sugar Beet Pulp” (Insights in enzyme research, 2016).

System: T1, FAET
T1 construct: full-length cDNA (introns removed) with own signal peptide in pPICZB, stop codon kept, no tag seen; secreted by Pichia pastoris GS115, culture supernatant, no purification described
Assay: pNP release at […] nm, microplate, recombinant P. pastoris culture supernatant
Type: biochemical, Talaromyces purpureogenus
Conditions: 100 mM sodium phosphate pH 5.8, 28 °C (general pNP assay)

Km | Structure (SMILES)
2300 µM | CC(=O)Oc1ccc([N+](=O)[O-])cc1 [pNP-acetate]
1400 µM | COc1cc(/C=C/C(=O)Oc2ccc([N+](=O)[O-])cc2)ccc1O [pNP-ferulate]
